Source: PubChem BioAssay AID1918944 (Molecular Pharmacology Branch, DTP, NCI, 2023)
Values joined by “and” are separate entries in the source; they are usually repeats but may differ in a detail not shown here. Identical values can stand only once.

Tested on: 786-0 complex spheroid viability
Test: Anticancer human tumor 786-0 cell line growth inhibition;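 also: spheroids exposed to agents for seven days before readout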
Conditions: for viability, T/C: stronger effect = lower value
Summary of the method: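 Complex spheroids of tumor cells with HUVEC and human MSCs, exposed to iadademstat combined with other agents. Each agent tested in half-log steps from near clinical Cmax (else 10 microM top), DMSO ≤0.25%.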

[1] = curve of first compound, second compound 0.1 µM
[2] = curve of first compound, second compound 0.316 µM
[3] = curve of first compound, second compound 1 µM
[4] = curve of first compound, second compound 3.16 µM
[5] = curve of first compound, second compound 10 µM
[6] = second compound 0.1 µM, first compound 0.00949 µM
[7] = second compound 0.1 µM, first compound 0.03 µM
[8] = second compound 0.1 µM, first compound 0.0949 µM
[9] = second compound 0.1 µM, first compound 0.3 µM
[10] = second compound 0.316 µM, first compound 0.00949 µM
[11] = second compound 0.316 µM, first compound 0.03 µM
[12] = second compound 0.316 µM, first compound 0.0949 µM
[13] = second compound 0.316 µM, first compound 0.3 µM
[14] = second compound 1 µM, first compound 0.00949 µM
[15] = second compound 1 µM, first compound 0.03 µM
[16] = second compound 1 µM, first compound 0.0949 µM
[17] = second compound 1 µM, first compound 0.3 µM
[18] = second compound 3.16 µM, first compound 0.00949 µM
[19] = second compound 3.16 µM, first compound 0.03 µM
[20] = second compound 3.16 µM, first compound 0.0949 µM
[21] = second compound 3.16 µM, first compound 0.3 µM
[22] = second compound 10 µM, first compound 0.00949 µM
[23] = second compound 10 µM, first compound 0.03 µM
[24] = second compound 10 µM, first compound 0.0949 µM
[25] = second compound 10 µM, first compound 0.3 µM
[26] = second compound 0.1 µM, first compound 0.949 µM
[27] = second compound 0.1 µM, first compound 3 µM
[28] = second compound 0.316 µM, first compound 0.949 µM
[29] = second compound 0.316 µM, first compound 3 µM
[30] = second compound 1 µM, first compound 0.949 µM
[31] = second compound 1 µM, first compound 3 µM
[32] = second compound 3.16 µM, first compound 0.949 µM
[33] = second compound 3.16 µM, first compound 3 µM
[34] = second compound 10 µM, first compound 0.949 µM
[35] = second compound 10 µM, first compound 3 µM

Compound | IC50 [1] [nM] | IC50 [2] [nM] | IC50 [3] [nM] | IC50 [4] [nM] | IC50 [5] [nM] | viability, T/C [6] [%] | viability, T/C [7] [%] | viability, T/C [8] [%] | viability, T/C [9] [%] | viability, T/C [10] [%] | viability, T/C [11] [%] | viability, T/C [12] [%] | viability, T/C [13] [%] | viability, T/C [14] [%] | viability, T/C [15] [%] | viability, T/C [16] [%] | viability, T/C [17] [%] | viability, T/C [18] [%] | viability, T/C [19] [%] | viability, T/C [20] [%] | also measured
Nc1ccn(C2OC(CO)C(O)C2(F)F)c(=O)n1 (configuration not stated) + NC1CCC(NC2CC2c2ccccc2)CC1 | < 0.949 | < 0.949 | < 0.949 | < 0.949 | < 0.949 | 2.51 | 5.79 | 3.38 | 3.63 | 2.97 | 3.95 | 3.04 | 3.93 | 3.51 | 3.28 | 5.66 | 4.13 | 3.12 | 3.88 | 3.97 | viability, T/C (second compound 0.1 µM, first compound 0.000949 µM): 4.09%; viability, T/C (second compound 0.1 µM, first compound 0.003 µM): 2.17%; viability, T/C (second compound 0.316 µM, first compound 0.000949 µM): 4.14%; viability, T/C (second compound 0.316 µM, first compound 0.003 µM): 2.73%; viability, T/C (second compound 1 µM, first compound 0.000949 µM): 4.18%; viability, T/C (second compound 1 µM, first compound 0.003 µM): 4.49%; viability, T/C (second compound 3.16 µM, first compound 0.000949 µM): 5.7%; viability, T/C (second compound 3.16 µM, first compound 0.003 µM): 3.25%; viability, T/C [21]: 4.18%; viability, T/C (second compound 10 µM, first compound 0.000949 µM): 4.1%; viability, T/C (second compound 10 µM, first compound 0.003 µM): 2.62%; viability, T/C [22]: 3%; viability, T/C [23]: 3.34%; viability, T/C [24]: 2.68%; viability, T/C [25]: 3.7%
O=C(C=Cc1cccc(S(=O)(=O)Nc2ccccc2)c1)NO + NC1CC1c1ccc(-c2cccc(O)c2)cc1 | 1300 | 1300 | 1250 | 1110 | 840 | 111 | 107 | 111 | 97 | 107 | 107 | 109 | 96.1 | 106 | 110 | 110 | 92.5 | 98.5 | 99.2 | 110 | viability, T/C [26]: 66.1%; viability, T/C [27]: 8.04%; viability, T/C [28]: 66.3%; viability, T/C [29]: 7.18%; viability, T/C [30]: 63.9%; viability, T/C [31]: 7.4%; viability, T/C [21]: 90.7%; viability, T/C [32]: 57.4%; viability, T/C [33]: 4.98%; viability, T/C [22]: 92.5%; viability, T/C [23]: 96.9%; viability, T/C [24]: 92.2%; viability, T/C [25]: 87.2%; viability, T/C [34]: 45.6%; viability, T/C [35]: 2.44%
CC1COCCN1c1cc(-c2ccnn2C)c2ccnc(-c3ccn[nH]3)c2n1 (configuration not stated) |  |  |  |  |  |  |  |  |  |  |  |  |  |  |  |  |  |  |  |  | viability, T/C (compound 0.00316 µM): 101% and 93.8%; viability, T/C (compound 0.01 µM): 95.2% and 97.4%; viability, T/C (compound 0.0316 µM): 56.1% and 64.5%; viability, T/C (compound 0.1 µM): 23.4% and 27.1%; viability, T/C (compound 0.316 µM): 11.3% and 22.2%; viability, T/C (compound 1 µM): 12.7% and 18%; IC50 (curve of compound): 40 nM and 49.3 nM
O=C(C=Cc1cccc(S(=O)(=O)Nc2ccccc2)c1)NO + NC1CCC(NC2CC2c2ccccc2)CC1 | 942 | 1020 | 912 | 653 | 446 | 112 | 109 | 107 | 99.6 | 113 | 111 | 112 | 104 | 107 | 107 | 110 | 92.8 | 96 | 101 | 93.8 | viability, T/C [26]: 49.6%; viability, T/C [27]: 6.03%; viability, T/C [28]: 53.2%; viability, T/C [29]: 5.39%; viability, T/C [30]: 48.7%; viability, T/C [31]: 5.27%; viability, T/C [21]: 81.9%; viability, T/C [32]: 34.8%; viability, T/C [33]: 6.76%; viability, T/C [22]: 80.5%; viability, T/C [23]: 77%; viability, T/C [24]: 76.4%; viability, T/C [25]: 60.7%; viability, T/C [34]: 29.1%; viability, T/C [35]: 2.25%
